Assay results as given in patent US20220033432A1, “ANTI-HEPATITIS B VIRUS AGENT” (priority 2019, published 2022).
Where two headings read alike, the source gives them in different places.

Columns and labels:
[1] = tested on: HBV; assay: Anti-HBV activity: intracellular HBV DNA by quantitative PCR in HepG2.2.15 cells; assay type: cell-based; details: Hepatitis B virus, read-out: EC50 (50% effective concentration), anti-HBV activity
Protocol: Anti-HBV activity was evaluated by quantitative PCR for determining the amount of HBV DNA in cells on the seventh day after the addition of the agent, using the HepG2.2.15 cell line of HBV-producing cells obtained by introducing a gene having a length twice that of the HBV genome into the human liver cancer cell line HepG2. For PCR of HBV DNA, a forward primer (HBV-S190F; 5′-GCT CGT OTT ACA GGC GGG-3′: SEQ ID NO: 1) and a reverse primer (HBV-S703R; 5′-GAA CCA CTG AAC AAA TOG CAC TAG TA-3′: SEQ ID NO: 2) were used. PCR was performed by carrying out a reaction at 95° C. for 10 sec, 62° C. for 10 sec, and 72° C. for 30 sec for 35 cycles.
Specifically, HepG2.2.15 cells were seeded at a concentration of 1×10^5 cells/well. 24 hours later, the compounds of Example 1 and Comparative Example 1 were diluted to have a concentration of 0, 0.49, 0.97, 1.95, 3.90, 7.81, 15.6, 31.3, 62.5, 125, 250, 500, and 1000 nM, and added to the cells. After the cells were cultured for 7 days, each cytoplasmic compartment was collected, and DNA was purified by phenol-chloroform extraction. 20 ng of the purified DNA was used to measure the amount of intracellular HBV DNA by quantitative PCR.
The EC50 (50% effective concentration) was calculated from a graph showing the relationship between the concentration of the compound and anti-HBV activity.

[2] = Cytotoxicity test (WST-1) in HepG2 NTCP-myc cells; assay type: cell-based; details: human, 7 days culture, read-out: CC50 (50% cytotoxic concentration)
Protocol: HepG2 NTCP-myc cells were seeded at a concentration of 2×10^4 cells/well. 24 hours later, the compound of Example 1 was diluted to have a concentration of 0, 0.49, 0.97, 1.95, 3.90, 7.81, 15.6, 31.3, 62.5, 125, 250, 500, and 1000 nM, and added to the cells. The HepG2 NTCP-myc cells were cultured for 7 days. After the culture, 10 μl of Premix WST-1 Cell Proliferation Assay System (TaKaRa) was added, and the cells were cultured at 37° C. for 2 hours. Thereafter, absorbance was determined at 450 nm using a microplate reader.
The CC50 (50% cytotoxic concentration) was calculated from a graph showing the relationship between the concentration of the compound and cytotoxicity.

[3] = 168 h, HepG2.2.15 cells, intracellular HBV DNA, day 7 after addition

`Nc1nc(F)c2ncn([C@@H]3O[C@H](CO)C(O)C3F)c2n1` (stereo partly drawn) [Example 2, 9-(2′-deoxy-2′-fluoro-β-D-arabinofuranos-1′-yl)-2-amino-6-fluoropurine] showed an EC50 [1, 3] of 880 nM and a CC50 at 7 days [2] of 337000 nM.

With `Nc1nc(I)c2ncn([C@@H]3O[C@H](CO)C(O)C3F)c2n1` (stereo partly drawn) [Example 3, 9-(2′-deoxy-2′-fluoro-β-D-arabinofuranos-1′-yl)-2-amino-6-] the EC50 [1, 3] was 990 nM and the CC50 at 7 days [2] was over 500000 nM.

Work on `Nc1nc(Cl)c2ncn([C@@H]3O[C@H](CO)C(O)C3F)c2n1` (stereo partly drawn) [Example 1, 9-(2′-deoxy-2′-fluoro-β-D-arabinofuranos-1′-yl)-2-amino-6-chloropurine] yielded an EC50 [1, 3] of 11.8 nM and a CC50 at 7 days [2] of over 500000 nM.

Compound `COc1nc(N)nc2c1ncn2[C@@H]1O[C@H](CO)C(O)C1F` (stereo partly drawn) [Example 5, 9-(2′-deoxy-2′-fluoro-β-D-arabinofuranos-1′-yl)-2-amino-6-methoxypurine] has an EC50 [1, 3] of 1630 nM and a CC50 at 7 days [2] of over 500000 nM.

In the case of `N#Cc1nc(N)nc2c1ncn2[C@@H]1O[C@H](CO)C(O)C1F` (stereo partly drawn) [Example 6, 9-(2′-deoxy-2′-fluoro-β-D-arabinofuranos-1′-yl)-2-amino-6-cyanopurine], the EC50 [1, 3] is reported as 930 nM and the CC50 at 7 days [2] is reported as over 500000 nM.

With `OC[C@H]1O[C@@H](n2cnc3c(Cl)nc(Cl)nc32)[C@@H](F)[C@@H]1O` [Comparative Example 1, 2,6-dichloro-9-((2R,3S,4R,5R)-3-fluoro-4-hydroxy-5-(hydroxymethyl)tetrahydrofuran-2-yl)-9H-purine, reference compound] the EC50 [1, 3] was over 10000 nM.

In the case of `Nc1nc(N)c2ncn([C@@H]3O[C@H](CO)C(O)C3F)c2n1` (stereo partly drawn) [Example 4, 9-(2′-deoxy-2′-fluoro-β-D-arabinofuranos-1′-yl)-2-amino-6-aminopurine], the EC50 ([1]; HepG2.2.15, 168 h) is reported as 2020 nM and the CC50 at 7 days [2] is reported as over 500000 nM.
